Where two headings read alike, the source gives them in different places.
Assays:
hTLR7 = target: T1, hTLR7 (Homo sapiens, UniProt Q9NYK1); experiment: TLR7 inhibition, R848-induced hTNFα in Daudi; type: cell-based
T1 construct: human B lymphoblasts (Daudi cells); endogenous in cells; host or cells: Daudi
Method: RAW 264.7 and differentiated THP-1 cells were seeded into 96-well plates at 2 × 10^4 cells per well, while Daudi cells were seeded at 5 × 10^4 cells per well. After stabilization for 30 min, cells were stimulated with specific TLR agonists for 4 or 24 h. Supernatants were diluted and transferred to precoated ELISA plates to measure TNF-α secretion using kits from Invitrogen. Optical absorbance was measured using a BioTek Synergy HTX multimode microplate reader, and data were interpolated using BioTek Gen5 software.
One-tailed paired Student’s t-tests were performed using Microsoft Excel (Microsoft). Semi-logarithmic conversions and nonregression curve analyses for calculating 50% lethal concentration (LC50) and 50% inhibitory concentration (IC50) values were conducted using GraphPad Prism 7.0 (GraphPad). The therapeutic index was calculated as […]. Animal experimental results are expressed as mean ± standard deviation and analyzed using SPSS v.20 (IBM SPSS Statistics). Homogeneity of variance was assessed using Levene’s test.
[…] Data are from at least three independent experiments (n = 3) and statistical differences between the induced case and other cases were analyzed and verified using a one-tailed Student’s t-test (*P < 0.05, **P < 0.01, ***P < 0.001).

murine TLR9 = target: T2, murine TLR9 (Mus musculus, UniProt Q9EQU3); experiment: SPR binding to TLR9
T2 construct: Fc; purchased R&D Systems
Method: Surface plasmon resonance (SPR) analysis was conducted using an SR7500DC SPR System (Reichert) with a CMDH chip for human TLR7 and murine TLR9 (R&D Systems) and a Biacore T200 platform (Cytiva) with a CM5 chip for TLR9–ODN binding. The running buffer contained 0.5% DMSO and phosphate-buffered saline, and 50 mM NaOH was used for regeneration. ETI series compounds were serially diluted from 500 μM and tested for binding affinity. Binding curves were analyzed using Scrubber2 and Biacore T200 evaluation softwares. The dissociation constants (KD) were calculated as KD = kd/ka.
SPR confirmed the binding mechanisms of ETI41 and ETI60 with TLR7 and TLR9, respectively, under three conditions: (a) early endosome (pH 7.4), (b) late endosome without CpG (pH 5.5) and (c) late endosome with CpG (pH 5.5). (a) Both ETI41 and ETI60 were measured for parameters indicating binding affinity, including the KD value presented in Table 3, and were further analyzed under conditions (b) and (c), depending on the presence or absence of ligand, to explain the binding mechanism occurring in TLR9.

TLR9 = experiment: FACS analysis of FAM-labeled CpG-ODN uptake and retention; type: cell-based; settings: for Endocytosis of CpG ODNs: 30-min treatment with labeled CpG ODNs
Method: RAW 264.7 cells were seeded into 60-mm dishes at 2 × 10^6 cells per dish. After 30 min of treatment with ETI41 or ETI60, cells were incubated with 1 μM of 3’-FAM-labeled ODN 2395 (Bioneer Inc.) for 30 min. Fluorescence intensity was measured using a NovoCyte Flow Cytometer (Agilent Technologies) and analyzed using NovoExpress software.
Fig. 3 Binding mechanism of ETI41 and ETI60 with TLR7 and TLR9. a ETI41 and ETI60 bind to the extracellular domain of TLR7. b Detailed intermolecular interactions ofETI41 and ETI60 are shown with the key residues of TLR7. c ETI41 and ETI60 bind to the extracellular domain of TLR9. d Intermolecular interactions of ETI41 and ETI60 with the key residues of TLR9. The asterisk indicates chain A of TLR7 and TLR9. ETI41 and ETI60 are depicted in ball-and-stick models. Bonds are represented by lines, with distances measured in ångström (Å) units. […] Data presented are from three independent experiments (n = 3), and statistical differences between the induced case and other cases were analyzed and verified using a one-tailed Student’s t-test (*P < 0.05, **P < 0.01, ***P < 0.001). TEXT PRINTED IN THE PICTURE: (f) ETI41: ODN-Fm (30min): Q3-1 0.00%; ODN-Fm (30min): Q3-2 0.00%; ODN-Fm (30min): Q3-3 10.75%; ODN-Fm (30min): Q3-4 89.25%; ODN-Fm (30min) → Washing → Incubation (1h): Q3-1 0.00%; ODN-Fm (30min) → Washing → Incubation (1h): Q3-2 0.00%; ODN-Fm (30min) → Washing → Incubation (1h): Q3-3 40.96%; ODN-Fm (30min) → Washing → Incubation (1h): Q3-4 59.04% | (f) ETI60: ODN-Fm (30min): Q3-1 0.00%; ODN-Fm (30min): Q3-2 0.00%; ODN-Fm (30min): Q3-3 12.80%; ODN-Fm (30min): Q3-4 87.20%; ODN-Fm (30min) → Washing → Incubation (1h): Q3-1 0.00%; ODN-Fm (30min) → Washing → Incubation (1h): Q3-2 0.00%; ODN-Fm (30min) → Washing → Incubation (1h): Q3-3 56.37%; ODN-Fm (30min) → Washing → Incubation (1h): Q3-4 43.63% DOUBTS OF THE COPYIST ABOUT THIS PICTURE: Panel f, very small print: the digits 3, 5, 6, 8 and 9 cannot be told apart with certainty in any quadrant percentage. / ETI41, ODN-Fm (30min): Q3-3 10.75% and Q3-4 89.25% are best readings / ETI60, ODN-Fm (30min): Q3-3 12.80% and Q3-4 87.20% are best readings / ETI41, Washing/Incubation (1h): Q3-3 40.96% and Q3-4 59.04% are best readings / ETI60, Washing/Incubation (1h): Q3-3 56.37% and Q3-4 43.63% are best readings / Panel f: the control plots ('Con' and '-') also print quadrant percentages. They are left out because they are not substance results.
FACS analysis further validated the binding of ETI41 and ETI60. Unmethylated CpG ODNs, acting as ligands for TLR9, were fluorescently labeled, and their cellular penetration was monitored.

[1] = system: endosomal and lysosomal pH; experiment: pH assay of endosomes and lysosomes in RAW 264.7; type: cell-based, mouse
Method: RAW 264.7 cells were seeded into black 96-well plates at […] cells per well and incubated overnight. After washing, the cells were treated with phenol-free RPMI 1640 medium (Gibco). Following 30 min of treatment with ETI41 or ETI60, cells were incubated with 20 µg/ml of pHrodo Red Dextran (Thermo Fisher Scientific) or 10 µM LysoSensor Yellow/Blue DND-160 (Thermo Fisher Scientific). Fluorescence was measured using a BioTek Synergy HTX Multimode Microplate Reader. Data were analyzed using the BioTek Gen5 software.
Fig. 3 Binding mechanism of ETI41 and ETI60 with TLR7 and TLR9. a ETI41 and ETI60 bind to the extracellular domain of TLR7. b Detailed intermolecular interactions ofETI41 and ETI60 are shown with the key residues of TLR7. c ETI41 and ETI60 bind to the extracellular domain of TLR9. d Intermolecular interactions of ETI41 and ETI60 with the key residues of TLR9. The asterisk indicates chain A of TLR7 and TLR9. ETI41 and ETI60 are depicted in ball-and-stick models. Bonds are represented by lines, with distances measured in ångström (Å) units. […] Data presented are from three independent experiments (n = 3), and statistical differences between the induced case and other cases were analyzed and verified using a one-tailed Student’s t-test (*P < 0.05, **P < 0.01, ***P < 0.001). […]

[2] = acidic pH 5.5 (late endosome), without or with CpG
[3] = neutral pH 7.4 (early endosome)

T2 sequence (Q9EQU3 with tags, fused parts or gaps limits assumed): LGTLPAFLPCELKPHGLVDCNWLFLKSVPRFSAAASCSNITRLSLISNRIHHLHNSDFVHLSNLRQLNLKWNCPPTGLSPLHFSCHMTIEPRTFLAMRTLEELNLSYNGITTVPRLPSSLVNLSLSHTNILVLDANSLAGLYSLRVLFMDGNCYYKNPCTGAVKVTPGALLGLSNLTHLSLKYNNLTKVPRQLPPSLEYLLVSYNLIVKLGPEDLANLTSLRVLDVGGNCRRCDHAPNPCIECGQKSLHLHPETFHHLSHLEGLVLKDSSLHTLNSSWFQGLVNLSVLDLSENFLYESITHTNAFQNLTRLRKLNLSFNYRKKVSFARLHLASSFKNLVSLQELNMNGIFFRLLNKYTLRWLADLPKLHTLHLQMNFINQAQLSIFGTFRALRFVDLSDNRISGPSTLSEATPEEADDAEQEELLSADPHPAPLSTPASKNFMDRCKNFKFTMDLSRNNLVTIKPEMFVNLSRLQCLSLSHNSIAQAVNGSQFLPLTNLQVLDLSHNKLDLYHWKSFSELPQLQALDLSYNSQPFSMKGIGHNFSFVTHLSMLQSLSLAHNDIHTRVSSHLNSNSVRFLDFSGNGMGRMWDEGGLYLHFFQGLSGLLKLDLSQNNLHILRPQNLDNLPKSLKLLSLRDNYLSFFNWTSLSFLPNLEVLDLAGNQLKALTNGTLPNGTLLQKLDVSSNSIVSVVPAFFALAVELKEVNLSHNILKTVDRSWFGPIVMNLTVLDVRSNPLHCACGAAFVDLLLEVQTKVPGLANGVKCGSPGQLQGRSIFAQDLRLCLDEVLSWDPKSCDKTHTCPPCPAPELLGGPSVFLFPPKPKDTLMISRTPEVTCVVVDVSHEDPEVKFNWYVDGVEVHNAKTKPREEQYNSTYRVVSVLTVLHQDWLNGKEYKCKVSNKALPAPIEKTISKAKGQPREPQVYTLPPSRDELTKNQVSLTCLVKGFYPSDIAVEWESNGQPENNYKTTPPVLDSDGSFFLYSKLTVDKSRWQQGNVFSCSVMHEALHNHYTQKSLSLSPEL
T1 sequence (Q9NYK1 27-1049): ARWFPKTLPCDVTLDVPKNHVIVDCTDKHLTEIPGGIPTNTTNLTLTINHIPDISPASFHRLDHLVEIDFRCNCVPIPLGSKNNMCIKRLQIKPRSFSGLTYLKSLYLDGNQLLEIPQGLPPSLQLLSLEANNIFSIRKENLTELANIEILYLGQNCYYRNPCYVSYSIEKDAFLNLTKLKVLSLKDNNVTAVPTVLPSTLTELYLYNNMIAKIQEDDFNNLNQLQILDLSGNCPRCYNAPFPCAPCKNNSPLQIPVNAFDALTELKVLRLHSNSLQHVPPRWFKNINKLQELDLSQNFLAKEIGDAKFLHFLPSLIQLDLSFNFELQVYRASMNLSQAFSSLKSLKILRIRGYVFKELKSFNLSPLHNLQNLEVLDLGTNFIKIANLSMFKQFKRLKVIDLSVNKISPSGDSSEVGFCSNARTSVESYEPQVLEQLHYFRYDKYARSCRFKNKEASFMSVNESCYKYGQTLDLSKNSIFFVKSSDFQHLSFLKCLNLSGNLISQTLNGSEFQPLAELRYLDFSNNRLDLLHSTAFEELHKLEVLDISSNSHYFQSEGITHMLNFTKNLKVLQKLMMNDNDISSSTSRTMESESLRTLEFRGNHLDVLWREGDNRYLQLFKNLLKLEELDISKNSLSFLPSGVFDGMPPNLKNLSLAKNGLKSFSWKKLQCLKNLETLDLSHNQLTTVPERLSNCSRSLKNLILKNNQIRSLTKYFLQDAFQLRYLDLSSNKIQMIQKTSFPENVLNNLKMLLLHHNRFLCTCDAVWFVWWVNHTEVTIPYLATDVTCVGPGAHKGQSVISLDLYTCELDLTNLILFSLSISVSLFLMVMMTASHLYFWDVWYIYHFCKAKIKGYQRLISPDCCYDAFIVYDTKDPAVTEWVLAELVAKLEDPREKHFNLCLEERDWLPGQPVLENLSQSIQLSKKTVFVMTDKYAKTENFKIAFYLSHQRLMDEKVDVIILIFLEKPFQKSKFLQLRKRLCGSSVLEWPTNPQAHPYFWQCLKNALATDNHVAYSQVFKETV

SMILES	IC50 (hTLR7)	kd (murine TLR9; Fc-TLR9, pH 7.4)	SPR binding to TLR9 (murine TLR9; [2])	SPR binding to TLR9 (murine TLR9; [3])	kon (murine TLR9; pH 7.4, read-out: ka)	Endocytosis of CpG ODNs (TLR9)	Fluorescence intensity of labeled CpG ODN after washing (TLR9)	pH of endosomes containing TLR3, TLR7, TLR8 and TLR9 [1]	Toxicity tests (doses ranging from 150 to 300 mg/kg)	Kd (murine TLR9; Fc-TLR9, pH 7.4)	kon (murine TLR9; Fc-TLR9, pH 7.4, read-out: ka)	Toxicity tests (in vivo)
Cc1cc2c(N)c3c(nc2n1CCCN(C)C)CCCCCC3 [ETI41]	0.947 µM	0.191 s⁻¹	binding was detected only in the late endosomal state where the natural ligand is present	clear binding affinity	10 M⁻¹ s⁻¹	did not interfere with endocytosis	reduction in fluorescence intensity	did not significantly affect	confirmed their safety	–	–	–
COc1ccc2c3c(N)c4c(nc3n(CCCN(C)C)c2c1)CCCC4 [ETI60]	0.668 µM	0.106 s⁻¹	binding was detected only in the late endosomal state where the natural ligand is present	clear binding affinity	–	did not interfere with endocytosis	reduction in fluorescence intensity	did not significantly affect	–	1500 µM	71 M⁻¹ s⁻¹	confirmed their safety

Source: paper PMC12508057, “Discovery of ETI41 and ETI60: novel selective endosomal Toll-like receptor inhibitors for the treatment of autoimmune diseases” (Experimental & Molecular Medicine, 2025)
